Measured values taken from patent publication US20230102554A1 (GB002, INC., priority 2019, published 2023).
pIC50: −log10 of the molar value.

How the values were obtained:
[1] = molecular target: T1, Human PDGFRβ, cytoplasmic domain (GST-PDGFRβ) (Homo sapiens, UniProt P09619); assay: Human PDGFRβ biochemical inhibition assay (off-chip Mobility Shift Assay)
T1 construct: made in house
In short: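 GST-tagged cytoplasmic domain (aa 557-1106) from baculovirus was incubated 1 h at room temperature with compound, CSKtide, ATP at Km and Mg²⁺ in HEPES buffer, pH 7.5. Phosphorylated and unphosphorylated peptide were separated by off-chip mobility shift, and the product ratio P/(P+S) gave percent inhibition.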

[2] = molecular target: T2, Human PDGFRα, cytoplasmic domain (GST-PDGFRα) (Homo sapiens, UniProt P16234); assay: Human PDGFRα biochemical inhibition assay (off-chip Mobility Shift Assay)
T2 construct: made in house
T2 sequence (P16234 550-1089 T674I): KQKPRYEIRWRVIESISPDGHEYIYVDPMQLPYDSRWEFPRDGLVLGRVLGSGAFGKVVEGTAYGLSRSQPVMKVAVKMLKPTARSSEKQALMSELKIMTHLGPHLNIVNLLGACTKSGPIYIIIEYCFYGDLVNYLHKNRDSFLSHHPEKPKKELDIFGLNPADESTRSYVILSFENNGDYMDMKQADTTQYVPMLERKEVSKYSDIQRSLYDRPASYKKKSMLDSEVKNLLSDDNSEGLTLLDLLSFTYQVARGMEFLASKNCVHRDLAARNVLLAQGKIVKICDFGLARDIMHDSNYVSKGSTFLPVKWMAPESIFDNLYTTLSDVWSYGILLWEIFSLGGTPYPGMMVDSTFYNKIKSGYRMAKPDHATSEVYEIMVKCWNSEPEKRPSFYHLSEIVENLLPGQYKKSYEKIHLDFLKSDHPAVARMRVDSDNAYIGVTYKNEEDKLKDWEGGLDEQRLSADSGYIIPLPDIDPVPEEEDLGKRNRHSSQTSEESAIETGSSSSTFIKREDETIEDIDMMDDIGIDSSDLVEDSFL

T1 sequence (P09619 with tags, fused parts or gaps): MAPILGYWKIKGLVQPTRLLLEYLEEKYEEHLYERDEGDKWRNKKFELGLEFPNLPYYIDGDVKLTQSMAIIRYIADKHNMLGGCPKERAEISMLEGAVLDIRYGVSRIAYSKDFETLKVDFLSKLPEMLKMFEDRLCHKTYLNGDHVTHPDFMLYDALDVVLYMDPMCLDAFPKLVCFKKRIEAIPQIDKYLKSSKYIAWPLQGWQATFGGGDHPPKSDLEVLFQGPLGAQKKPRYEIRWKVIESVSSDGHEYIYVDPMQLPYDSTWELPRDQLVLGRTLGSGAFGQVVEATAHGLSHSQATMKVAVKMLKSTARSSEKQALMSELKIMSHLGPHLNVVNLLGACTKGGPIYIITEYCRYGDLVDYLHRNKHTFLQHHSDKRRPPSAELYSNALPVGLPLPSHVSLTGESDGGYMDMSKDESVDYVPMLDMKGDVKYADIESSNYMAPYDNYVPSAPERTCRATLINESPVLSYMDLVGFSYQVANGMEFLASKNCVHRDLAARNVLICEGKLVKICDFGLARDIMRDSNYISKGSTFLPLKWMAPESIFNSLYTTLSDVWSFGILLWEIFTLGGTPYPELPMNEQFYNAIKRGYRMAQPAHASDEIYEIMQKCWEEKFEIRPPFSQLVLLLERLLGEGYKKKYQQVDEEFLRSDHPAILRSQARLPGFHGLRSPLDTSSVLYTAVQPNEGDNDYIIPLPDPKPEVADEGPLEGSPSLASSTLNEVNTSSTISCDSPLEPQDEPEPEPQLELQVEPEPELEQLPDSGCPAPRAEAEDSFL

Question: With Cc1cncc(C(=O)Nc2cccc([C@H](C)Nc3cnc4[nH]nc(C)c4c3)c2)c1 [Compound 14, (S)-5-methyl-N-(3-(1-((3-methyl-1H-pyrazolo[3,4-b]pyridin-5-yl)amino)ethyl)phenyl)nicotinamide] as the compound, how does the pIC50 [1] read?
Answer: The pIC50 was > 6.52.

Question: And the pIC50 [2]?
Answer: Its pIC50 is > 6.52.

Question: What does the source list for C[C@H](Nc1cnc2cc(C(F)F)sc2n1)c1cc(NC(=O)c2ccc(C(F)(F)F)nc2)ccc1F [Compound 618, (S)-N-(3-(1-((6-(difluoromethyl)thieno[2,3-b]pyrazin-3-yl)amino)ethyl)-4-fluorophenyl)-6-(trifluoromethyl)nicotinamide]?
Answer: pIC50 [1]: > 6.52; pIC50 [2]: > 6.52

Question: How did the pIC50 [1] turn out when CCn1cc2ncc(N[C@@H](C)c3cccc(NC(=O)c4ccc(CN5CCN(C)CC5)c(Cl)c4)c3)nc2n1 [Compound 417, (S)-3-chloro-N-(3-(1-((2-ethyl-2H-pyrazolo[3,4-b]pyrazin-6-yl)amino)ethyl)phenyl)-4-((4-methylpiperazin-1-yl)methyl) benzamide] was run?
Answer: The pIC50 was > 6.52.

Question: And the pIC50 [2]?
Answer: Its pIC50 is > 6.52.

Question: What does the source list for CCn1cc2ncc(N[C@@H](C)c3cc(NC(=O)Cc4cccc(Cl)c4)ccc3F)nc2n1 [Compound 635, (S)-2-(3-chlorophenyl)-N-(3-(1-((2-ethyl-2H-pyrazolo[3,4-b]pyrazin-6-yl)amino)ethyl)-4-fluorophenyl)acetamide]?
Answer: pIC50 [1]: > 6.52; pIC50 [2]: > 6.52

Question: With Cc1cncc(C(=O)Nc2cccc([C@H](C)Nc3cnc4ncccc4n3)c2)c1 [Compound 26, (S)-5-methyl-N-(3-(1-(pyrido[2,3-b]pyrazin-2-ylamino)ethyl)phenyl) nicotinamide] as the compound, how does the pIC50 [1] read?
Answer: The pIC50 was ≤ 6.00.

Question: What about the pIC50 [2] of the same compound?
Answer: Its pIC50 is 6.00 to 6.52.

Question: With CCn1cc2ncc(N[C@@H](C)c3cccc(NC(=O)Nc4ccc(OC(F)(F)F)nc4)c3)nc2n1 [Compound 407, (S)-1-(3-(1-((2-ethyl-2H-pyrazolo[3,4-b]pyrazin-6-yl)amino)ethyl)phenyl)-3-(6-(trifluoromethoxy)pyridin-3-yl) urea] as the compound, how does the pIC50 [1] read?
Answer: Its pIC50 is > 6.52.

Question: And the pIC50 [2]?
Answer: The pIC50 was > 6.52.

Question: CCn1cc2ncc(N[C@@H](C)c3cccc(NC(=O)Cc4cccc(C)c4)c3)nc2n1 [Compound 622, (S)-N-(3-(1-((2-ethyl-2H-pyrazolo[3,4-b]pyrazin-6-yl)amino)ethyl)phenyl)-2-(m-tolyl) acetamide] was tested. Which pIC50 [1] did it give?
Answer: Its pIC50 is > 6.52.

Question: And the pIC50 [2]?
Answer: The pIC50 was > 6.52.

Question: Which results are given for CCn1cc2ncc(N[C@@H](C)c3cccc(NC(=O)c4cnc(C(C)C)s4)c3)nc2n1 [Compound 349, (S)-N-(3-(1-((2-ethyl-2H-pyrazolo[3,4-b]pyrazin-6-yl)amino)ethyl)phenyl)-2-isopropylthiazole-5-carboxamide]?
Answer: pIC50 [1]: > 6.52; pIC50 [2]: > 6.52

Question: How did the pIC50 [1] turn out when COc1cncc(C(=O)Nc2cccc([C@H](C)Nc3cnc4[nH]cc(C)c4n3)c2)c1 [Compound 555, (S)-5-methoxy-N-(3-(1-((7-methyl-5H-pyrrolo[2,3-b]pyrazin-2-yl)amino)ethyl)phenyl)nicotinamide] was run?
Answer: The pIC50 was > 6.52.

Question: And the pIC50 [2]?
Answer: Its pIC50 is > 6.52.

Question: CCn1cc2ncc(N[C@@H](C)c3cccc(NC(=O)c4ccc(CN5CC6(CN(C)C6)C5)c(C)c4)c3)nc2n1 [Compound 473, (S)-N-(3-(1-((2-ethyl-2H-pyrazolo[3,4-b]pyrazin-6-yl)amino)ethyl)phenyl)-3-methyl-4-((6-methyl-2,6-diazaspiro[3.3]heptan-2-yl)methyl)benzamide] was tested. Which pIC50 [1] did it give?
Answer: Its pIC50 is > 6.52.

Question: What about the pIC50 [2] of the same compound?
Answer: Its pIC50 is > 6.52.

Question: With CCc1ncc(C(=O)Nc2cccc([C@H](C)Nc3cnc4cnn(C)c4n3)c2)cc1C [Compound 233, (S)-6-ethyl-5-methyl-N-(3-(1-((1-methyl-1H-pyrazolo[3,4-b]pyrazin-6-yl)amino)ethyl)phenyl)nicotinamide] as the compound, how does the pIC50 [1] read?
Answer: The pIC50 was > 6.52.

Question: And the pIC50 [2]?
Answer: The pIC50 was > 6.52.

Question: How did the pIC50 [1] turn out when C[C@H](Nc1cnc2cnn(C)c2n1)c1cccc(NC(=O)c2ccn(C(F)F)n2)c1 [Compound 155, (S)-1-(difluoromethyl)-N-(3-(1-((1-methyl-1H-pyrazolo[3,4-b]pyrazin-6-yl)amino)ethyl)phenyl)-1H-pyrazole-3-carboxamide] was run?
Answer: The pIC50 was ≤ 6.00.

Question: What about the pIC50 [2] of the same compound?
Answer: Its pIC50 is > 6.52.

Question: With CC(C)n1ccc(C(=O)Nc2cccc([C@H](C)Nc3cnc4cnn(C)c4n3)c2)n1 [Compound 156, (S)-1-isopropyl-N-(3-(1-((1-methyl-1H-pyrazolo[3,4-b]pyrazin-6-yl)amino)ethyl)phenyl)-1H-pyrazole-3-carboxamide] as the compound, how does the pIC50 [1] read?
Answer: Its pIC50 is > 6.52.

Question: What about the pIC50 [2] of the same compound?
Answer: Its pIC50 is > 6.52.

Question: What does the source list for CCn1cc2ncc(N[C@@H](C)c3cccc(NC(=O)c4ccc(CN5CC[C@H](O)C5)c(Cl)c4)c3)nc2n1 [Compound 494, 3-chloro-N-(3-((5)-1-((2-ethyl-2H-pyrazolo[3,4-b]pyrazin-6-yl)amino)ethyl)phenyl)-4-(((S)-3-hydroxypyrrolidin-1-yl)methyl) benzamide]?
Answer: pIC50 [1]: > 6.52; pIC50 [2]: > 6.52

Question: Which results are given for COc1ncc(C(=O)Nc2cccc([C@H](C)Nc3cnc4[nH]cc(-c5cnn(C)c5)c4n3)c2)cc1C [Compound 579, (S)-6-methoxy-5-methyl-N-(3-(1-((7-(1-methyl-1H-pyrazol-4-yl)-5H-pyrrolo[2,3-b]pyrazin-2-yl)amino)ethyl)phenyl) nicotinamide]?
Answer: pIC50 [1]: > 6.52; pIC50 [2]: > 6.52

Question: Which results are given for CC(C)c1cc(C(=O)Nc2cccc([C@H](C)Nc3cnc4[nH]ncc4n3)c2)no1 [Compound 530, (S)-N-(3-(1-((1H-pyrazolo[3,4-b]pyrazin-5-yl)amino)ethyl)phenyl)-5-isopropylisoxazole-3-carboxamide]?
Answer: pIC50 [1]: > 6.52; pIC50 [2]: > 6.52

Question: Cc1cncc(C(=O)Nc2ccc(F)c([C@H](C)Nc3cnc4cn(CC5CCNC5)nc4n3)c2)c1 (stereo partly drawn) [Compound 410, N-(4-fluoro-3-((1S)-1-((2-(pyrrolidin-3-ylmethyl)-2H-pyrazolo[3,4-b]pyrazin-6-yl)amino)ethyl)phenyl)-5-methylnicotinamide] was tested. Which pIC50 [1] did it give?
Answer: The pIC50 was > 6.52.

Question: What about the pIC50 [2] of the same compound?
Answer: The pIC50 was > 6.52.

Question: With CCn1cc2ncc(N[C@@H](C)c3cccc(NC(=O)c4cnc(N5CCN(C)CC5)c(C(F)(F)F)c4)c3)nc2n1 [Compound 422, (S)-N-(3-(1-((2-ethyl-2H-pyrazolo[3,4-b]pyrazin-6-yl)amino)ethyl)phenyl)-6-(4-methylpiperazin-1-yl)-5-(trifluoromethyl)nicotinamide] as the compound, how does the pIC50 [1] read?
Answer: The pIC50 was > 6.52.

Question: What about the pIC50 [2] of the same compound?
Answer: Its pIC50 is > 6.52.

Question: Which results are given for Cc1cncc(C(=O)Nc2cccc([C@H](C)Nc3cnc4cn(CCN5CCOCC5)nc4n3)c2)c1 [Compound 278, (S)-5-methyl-N-(3-(1-((2-(2-morpholinoethyl)-2H-pyrazolo[3,4-b]pyrazin-6-yl)amino)ethyl)phenyl) nicotinamide]?
Answer: pIC50 [1]: ≤ 6.00; pIC50 [2]: 6.00 to 6.52

Question: With CCn1cc2ncc(N[C@@H](C)c3cccc(NC(=O)Nc4cnc(NC)c(C)c4)c3)nc2n1 [Compound 743, (S)-1-(3-(1-((2-ethyl-2H-pyrazolo[3,4-b]pyrazin-6-yl)amino)ethyl)phenyl)-3-(5-methyl-6-(methylamino)pyridin-3-yl)urea] as the compound, how does the pIC50 [1] read?
Answer: Its pIC50 is 6.00 to 6.52.

Question: What about the pIC50 [2] of the same compound?
Answer: Its pIC50 is > 6.52.

Question: CCn1cc2ncc(N[C@@H](C)c3cc(NC(=O)c4cnn(CCF)c4)ccc3F)nc2n1 [Compound 311, (S)-N-(3-(1-((2-ethyl-2H-pyrazolo[3,4-b]pyrazin-6-yl)amino)ethyl)-4-fluorophenyl)-1-(2-fluoroethyl)-1H-pyrazole-4-carboxamide] was tested. Which pIC50 [1] did it give?
Answer: The pIC50 was > 6.52.

Question: And the pIC50 [2]?
Answer: Its pIC50 is > 6.52.

Question: How did the pIC50 [1] turn out when CCn1cc2ncc(N[C@@H](C)c3cccc(NC(=O)c4ccc(CN5CCCC6(COC6)C5)c(C)c4)c3)nc2n1 [Compound 481, (S)-4-((2-oxa-6-azaspiro[3.5]nonan-6-yl)methyl)-N-(3-(1-((2-ethyl-2H-pyrazolo[3,4-b]pyrazin-6-yl)amino)ethyl)phenyl)-3-methylbenzamide] was run?
Answer: Its pIC50 is > 6.52.

Question: What about the pIC50 [2] of the same compound?
Answer: Its pIC50 is > 6.52.

Question: What does the source list for Cc1cncc(C(=O)Nc2cccc([C@H](C)Nc3cnc4cccnc4n3)c2)c1 [Compound 5, (S)-5-methyl-N-(3-(1-(pyrido[2,3-b]pyrazin-3-ylamino)ethyl)phenyl) nicotinamide]?
Answer: pIC50 [1]: 6.00 to 6.52; pIC50 [2]: > 6.52

Question: CCn1cc2ncc(N[C@@H](C)c3cccc(NC(=O)c4ccc(CN5CC(O)C5)c(C)c4)c3)nc2n1 [Compound 496, (S)-N-(3-(1-((2-ethyl-2H-pyrazolo[3,4-b]pyrazin-6-yl)amino)ethyl)phenyl)-4-((3-hydroxyazetidin-1-yl)methyl)-3-methylbenzamide] was tested. Which pIC50 [1] did it give?
Answer: The pIC50 was 6.00 to 6.52.

Question: What about the pIC50 [2] of the same compound?
Answer: Its pIC50 is > 6.52.

Question: CCn1cc2ncc(N[C@@H](C)c3cccc(NC(=O)Cc4cc(C)ccn4)c3)nc2n1 [Compound 678, (S)-N-(3-(1-((2-ethyl-2H-pyrazolo[3,4-b]pyrazin-6-yl)amino)ethyl)phenyl)-2-(4-methylpyridin-2-yl)acetamide] was tested. Which pIC50 [1] did it give?
Answer: Its pIC50 is ≤ 6.00.

Question: What about the pIC50 [2] of the same compound?
Answer: The pIC50 was > 6.52.

Question: What does the source list for CCn1cc2ncc(N[C@@H](C)c3cccc(NC(=O)c4cnn(CCF)c4)c3)nc2n1 [Compound 298, (S)-N-(3-(1-((2-ethyl-2H-pyrazolo[3,4-b]pyrazin-6-yl)amino)ethyl)phenyl)-1-(2-fluoroethyl)-1H-pyrazole-4-carboxamide]?
Answer: pIC50 [1]: 6.00 to 6.52; pIC50 [2]: > 6.52

Question: What does the source list for CCn1cc2ncc(N[C@@H](C)c3cccc(NC(=O)c4ccc(CN5CC6CC6C5)c(C)c4)c3)nc2n1 (stereo partly shown) [Compound 477, 4-((3-azabicyclo[3.1.0]hexan-3-yl)methyl)-N-(3-((5)-1-((2-ethyl-2H-pyrazolo[3,4-b]pyrazin-6-yl)amino)ethyl)phenyl)-3-methylbenzamide]?
Answer: pIC50 [1]: > 6.52; pIC50 [2]: > 6.52

Question: C[C@H](Nc1cnc2cnn(C)c2n1)c1cccc(NC(=O)c2ccc3c(c2)CCC(=O)O3)c1 [Compound 72, (S)-N-(3-(1-((1-methyl-1H-pyrazolo[3,4-b]pyrazin-6-yl)amino)ethyl)phenyl)-2-oxochromane-6-carboxamide] was tested. Which pIC50 [1] did it give?
Answer: The pIC50 was > 6.52.

Question: What about the pIC50 [2] of the same compound?
Answer: Its pIC50 is > 6.52.

Question: What does the source list for CCn1cc2ncc(N[C@@H](C)c3cccc(NC(=O)c4ccc(OC(F)F)c(Cl)c4)c3)nc2n1 [Compound 450, (S)-3-chloro-4-(difluoromethoxy)-N-(3-(1-((2-ethyl-2H-pyrazolo[3,4-b]pyrazin-6-yl)amino)ethyl)phenyl)benzamide]?
Answer: pIC50 [1]: > 6.52; pIC50 [2]: > 6.52
